Test results taken from patent publication US9326513B2, “Fungicidal compositions” (Syngenta Participations AG, priority 2011, dated 2016).

What was measured:
Assay type in all cases: in vivo
Settings in all cases: foliar, compared to untreated control leaf disks, read-out: disease control
[1] = tested on: Blumeria graminis f. sp. tritici (Erysiphe graminis f. sp. tritici); experiment: Blumeria graminis f. sp. tritici / wheat / leaf disc preventative (powdery mildew on wheat)
Procedure: Blumeria graminis f. sp. tritici (Erysiphe graminis f. sp. tritici)/Wheat/Leaf Disc Preventative (Powdery Mildew on Wheat)
Wheat leaf segments cv. Kanzler were placed on agar in a multiwell plate (24-well format) and sprayed with the formulated test compound diluted in water. The leaf disks were inoculated by shaking powdery mildew infected plants above the test plates 1 day after application. The inoculated leaf disks were incubated at 20° C. and 60% rh under a light regime of 24 h darkness followed by 12 h light/12 h darkness in a climate chamber and the activity of a compound was assessed as percent disease control compared to untreated when an appropriate level of disease damage appears on untreated check leaf segments (6-8 days after application).
The following compounds gave at 200 ppm give at least 50% disease control in this test when compared to untreated control leaf disks under the same conditions, which show extensive disease development: […]

[2] = tested on: Puccinia recondita f. sp. tritici; experiment: Puccinia recondita f. sp. tritici / wheat / leaf disc preventative (brown rust)
Text: Puccinia recondita f. sp. tritici/Wheat/Leaf Disc Preventative (Brown Rust) Wheat leaf segments cv. Kanzler were placed on agar in multiwell plates (24-well format) and sprayed with the formulated test compound diluted in water. The leaf disks were inoculated with a spore suspension of the fungus 1 day after application.

[3] = tested on: Puccinia recondita f. sp. tritici; experiment: Puccinia recondita f. sp. tritici / wheat / leaf disc curative (brown rust)
Procedure: Puccinia recondita f. sp. tritici/Wheat/Leaf Disc Curative (Brown Rust) Wheat leaf segments cv. Kanzler are placed on agar in multiwell plates (24-well format). The leaf segments are inoculated with a spore suspension of the fungus. Plates were stored in darkness at 19° C. and 75% rh. The formulated test compound diluted in water was applied 1 day after inoculation.

Measured: pest or weed control at 200 ppm

CCN(C)/C=N/c1cc(C)c(O[C@H]2CC[C@H](C(C)C)CC2)nc1C [Q.185]
≥ 50%: all assays above

Cc1cc(C)cc(COc2ccc(/N=C/N(C)C(C)C)c(C)n2)c1 [Q.297]
≥ 50%: all assays above

CCN(C)/C=N/c1cc(Br)c(OCc2ccccc2-c2ccccc2)nc1C [Q.294]
≥ 50%: all assays above

CCN(C)/C=N/c1cc(Br)c(OCc2ccc3c(c2)CCCC3)nc1C [Q.319]
≥ 50%: all assays above

CCN(C)/C=N/c1ccc(O[C@H]2CC[C@@H](CC)CC2)nc1C [Q.381]
≥ 50%: all assays above

CCN(C)/C=N/c1cc(Br)c(OC(C)c2cc(F)c(F)c(F)c2)nc1C (stereo not drawn) [Q.318]
≥ 50%: all assays above

CCN(C)/C=N/c1cc(Br)c(OCc2ccccc2C)nc1Br [Q.397]
≥ 50%: all assays above

Cc1nc(OCCCC(C)C)c(Br)cc1/N=C/N(C)C [Q.006]
≥ 50%: all assays above

C/C=C/C(C)Oc1nc(C)c(/N=C/N(C)CC)cc1Br (stereo not drawn) [Q.331]
≥ 50%: all assays above

CCN(C)/C=N/c1cc(Br)c(OCc2ccc(F)c(C)c2)nc1C [Q.323]
≥ 50%: all assays above

CCN(C)/C=N/c1cc(Br)c(OCc2snc(C(C)C)c2C#N)nc1C [Q.156]
≥ 50%: all assays above

CCN(C)/C=N/c1cc(Br)c(OCCCC(O)COC)nc1C (stereo not drawn) [Q.036]
≥ 50%: all assays above

CCN(C)/C=N/c1cc(Br)c(OCCCC=C(C)C)nc1C [Q.118]
≥ 50%: all assays above

CCN(C)/C=N/c1cc(Br)c(OCc2ccccc2C(C)C)nc1C [Q.306]
≥ 50%: all assays above

CCN(C)/C=N/c1ccc(OCc2cc(C)cc(C)c2)nc1C [Q.296]
≥ 50%: all assays above

CCN(C)/C=N/c1cc(Br)c(OCCCCc2ccc(Cl)cc2)nc1C [Q.045]
≥ 50%: all assays above

CCN(C)/C=N/c1cc(Br)c(OC(C)c2ccccc2Br)nc1C (stereo not drawn) [Q.303]
≥ 50%: all assays above

CCN(C)/C=N/c1ccc(OCc2ccccc2OC)nc1C [Q.367]
≥ 50%: all assays above
